Holding throughout (type): ADME, organism-based
The nature of series [1]: AUC (0 to 24 hrs) in HIV-infected patient at 100 mg, qd. Also on record: dose 100 mg, time < 24 hr. The note with it: human, plasma.
The nature of series [2]: Half life in HIV-infected patient at 100 mg, qd co-administered with 100 mg minocycline, bid for 15 days. The note with it: human, in vivo.
The nature of series [3]: Half life in HIV-infected patient at 100 mg, qd co-administered with 100 mg minocycline and 250 mg valporic acid, bid for 15 days. The note with it: human, in vivo.
The nature of series [4]: AUC (0 to 24 hrs) in HIV-infected patient at 100 mg, qd co-administered with 100 mg minocycline and 250 mg valporic acid, bid for 15 days. The note with it: human, plasma. Also on record: dose 100 mg, time < 24 hr.
The nature of series [5]: Half life in HIV-infected patient at 100 mg, qd. The note with it: human, in vivo.
Series [6] in a line: AUC (0 to 24 hrs) in HIV-infected patient at 100 mg, qd co-administered with 100 mg minocycline, bid for 15 days. The note with it: human, plasma. More on the design: time < 24 hr, dose 100 mg.
Series [7] in a line: Cmax in HIV-infected patient at 100 mg, qd co-administered with 100 mg minocycline and 250 mg valporic acid, bid for 15 days. Also on record: dose 100 mg. The note with it: human, in vivo.
Series [8] is described as follows: Cmax in HIV-infected patient at 100 mg, qd. Also on record: dose 100 mg. The note with it: human, in vivo.
The nature of series [9]: Cmax in HIV-infected patient at 100 mg, qd co-administered with 100 mg minocycline, bid for 15 days. The note with it: human, in vivo. Also on record: dose 100 mg.
Series [10] is described as follows: Cmax in HIV-infected patient at 300 mg, qd co-administered with 100 mg minocycline and 250 mg valporic acid, bid for 15 days. More on the design: dose 300 mg. The note with it: human, in vivo.
A short description of series [11]: AUC (0 to 24 hrs) in HIV-infected patient at 300 mg, qd. Also on record: time < 24 hr, dose 300 mg. The note with it: human, plasma.
Series [12] can be described thus: AUC (0 to 24 hrs) in HIV-infected patient at 300 mg, qd co-administered with 100 mg minocycline and 250 mg valporic acid, bid for 15 days. More on the design: time < 24 hr, dose 300 mg. The note with it: human, plasma.
Series [13] is described as follows: Cmax in HIV-infected patient at 300 mg, qd. More on the design: dose 300 mg. The note with it: human, in vivo.
Series [14] is described as follows: AUC (0 to 24 hrs) in HIV-infected patient at 300 mg, qd co-administered with 100 mg minocycline, bid for 15 days. Also on record: dose 300 mg, time < 24 hr. The note with it: human, plasma.
The nature of series [15]: Half life in HIV-infected patient at 300 mg, qd co-administered with 100 mg minocycline, bid for 15 days. The note with it: human, in vivo.
Series [16] in a line: Half life in HIV-infected patient at 300 mg, qd. The note with it: human, in vivo.
Series [17] in a line: Half life in HIV-infected patient at 300 mg, qd co-administered with 100 mg minocycline and 250 mg valporic acid, bid for 15 days. The note with it: human, in vivo.
Series [18] can be described thus: Cmax in HIV-infected patient at 300 mg, qd co-administered with 100 mg minocycline, bid for 15 days. More on the design: dose 300 mg. The note with it: human, in vivo.

Turning to `CC(C)c1nc(CN(C)C(=O)N[C@H](C(=O)N[C@@H](Cc2ccccc2)C[C@H](O)[C@H](Cc2ccccc2)NC(=O)OCc2cncs2)C(C)C)cs1` [RITONAVIR], the AUC at 24 h in series [1] was 9600 ng·h/mL; in series [4] it was 7270 ng·h/mL; in series [6], 8190 ng·h/mL. Also, the half-life was 6.64 h in series [2], 4.4 h in series [3] and 5.4 h in [5]. Also, the Cmax in series [7] was 884 ng/mL; in [8] it was 957 ng/mL; in series [9] it was 990 ng/mL.
Take `COC(=O)N[C@H](C(=O)N[C@@H](Cc1ccccc1)[C@@H](O)CN(Cc1ccc(-c2ccccn2)cc1)NC(=O)[C@@H](NC(=O)OC)C(C)(C)C)C(C)(C)C` [ATAZANAVIR]: the Cmax came out at 2600 ng/mL in series [10], 5130 ng/mL in series [13] and 3400 ng/mL in series [18]. Besides, the figures for the area under the curve (AUC) at 24 h in series [11], in series [12] and in series [14] were 53500 ng·h/mL, 33500 ng·h/mL and 33100 ng·h/mL, respectively. The half-life in [15] was 7.93 h; in [16], 11 h; in series [17], 10.4 h.

These data come from ChEMBL document CHEMBL1629549, “Effects of minocycline and valproic acid coadministration on atazanavir plasma concentrations in human immunodeficiency virus-infected adults receiving atazanavir-ritonavir” (Antimicrob Agents Chemother, 2008).
